In paper PMC8449129, “Single tracer-based protocol for broad-spectrum kinase profiling in live cells with NanoBRET” (STAR Protocols, 2021):

What was measured:
Assay in all cases: cell-based
Set-up in all cases: NanoBRET live-cell target engagement; % occupancy from displacement of tracer K10 on NanoLuc-kinase fusions, mean n=3
Details in all cases: HEK293, read-out: % inhibition
CDK18 = CDK18 (Homo sapiens, UniProt Q07002)
In short: (§1)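 Live-cell NanoBRET target engagement: cells expressing kinase–NanoLuc fusion with tracer treated with compound 2 h at 37 °C, 5% CO2. BRET read from donor (450 nm) and acceptor (610/630 nm) emission with 20 μM extracellular NanoLuc inhibitor; % occupancy calculated relative to tracer+DMSO and zero-BRET controls.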

CAMK2A = CAMK2A (Homo sapiens, UniProt Q9UQM7)
In short: as §1

RIPK2 = RIPK2 (Homo sapiens, UniProt O43353)
In short: as §1

NEK9 = NEK9 (Homo sapiens, UniProt Q8TD19)
In short: as §1

ITK = ITK (Homo sapiens, UniProt Q08881)
In short: as §1

MARK2 = MARK2 (Homo sapiens, UniProt Q7KZI7)
In short: as §1

FGFR3 = FGFR3 (Homo sapiens, UniProt P22607)
In short: as §1

GAK = GAK (Homo sapiens, UniProt O14976)
In short: as §1

PRKAA1 = PRKAA1 (Homo sapiens, UniProt Q13131)
In short: as §1

WEE2 = WEE2 (Homo sapiens, UniProt P0C1S8)
In short: as §1

MYLK4 = MYLK4 (Homo sapiens, UniProt Q86YV6)
In short: as §1

PRKAA2 = PRKAA2 (Homo sapiens, UniProt P54646)
In short: as §1

CAMK2D = CAMK2D (Homo sapiens, UniProt Q13557)
In short: as §1

PRKCE = PRKCE (Homo sapiens, UniProt Q02156)
In short: as §1

SRMS = SRMS (Homo sapiens, UniProt Q9H3Y6)
In short: as §1

AAK1 = AAK1 (Homo sapiens, UniProt Q2M2I8)
In short: as §1

SNRK = SNRK (Homo sapiens, UniProt Q9NRH2)
In short: as §1

STK38L = STK38L (Homo sapiens, UniProt Q9Y2H1)
In short: as §1

Chain of PRKCE (Q02156 whole entry): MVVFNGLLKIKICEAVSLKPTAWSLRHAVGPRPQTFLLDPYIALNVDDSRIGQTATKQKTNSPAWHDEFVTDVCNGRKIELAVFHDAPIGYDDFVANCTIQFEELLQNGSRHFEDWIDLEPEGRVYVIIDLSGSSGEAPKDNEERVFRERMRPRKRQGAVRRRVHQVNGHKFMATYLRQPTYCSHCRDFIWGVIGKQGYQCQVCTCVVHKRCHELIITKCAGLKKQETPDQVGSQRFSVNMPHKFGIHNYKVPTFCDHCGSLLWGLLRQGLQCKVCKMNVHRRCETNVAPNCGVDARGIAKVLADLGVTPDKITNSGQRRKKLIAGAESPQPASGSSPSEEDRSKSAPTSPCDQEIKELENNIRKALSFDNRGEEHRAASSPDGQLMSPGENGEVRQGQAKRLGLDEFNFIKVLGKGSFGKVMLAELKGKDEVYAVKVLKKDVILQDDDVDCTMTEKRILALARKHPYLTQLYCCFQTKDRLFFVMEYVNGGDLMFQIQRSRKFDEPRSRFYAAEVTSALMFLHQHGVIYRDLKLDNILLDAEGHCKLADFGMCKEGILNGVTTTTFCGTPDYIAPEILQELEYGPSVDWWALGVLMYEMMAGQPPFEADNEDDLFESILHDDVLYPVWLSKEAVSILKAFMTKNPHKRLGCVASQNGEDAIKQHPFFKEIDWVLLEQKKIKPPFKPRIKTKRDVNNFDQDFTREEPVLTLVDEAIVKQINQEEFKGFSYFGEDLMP
Chain of ITK (Q08881 whole entry): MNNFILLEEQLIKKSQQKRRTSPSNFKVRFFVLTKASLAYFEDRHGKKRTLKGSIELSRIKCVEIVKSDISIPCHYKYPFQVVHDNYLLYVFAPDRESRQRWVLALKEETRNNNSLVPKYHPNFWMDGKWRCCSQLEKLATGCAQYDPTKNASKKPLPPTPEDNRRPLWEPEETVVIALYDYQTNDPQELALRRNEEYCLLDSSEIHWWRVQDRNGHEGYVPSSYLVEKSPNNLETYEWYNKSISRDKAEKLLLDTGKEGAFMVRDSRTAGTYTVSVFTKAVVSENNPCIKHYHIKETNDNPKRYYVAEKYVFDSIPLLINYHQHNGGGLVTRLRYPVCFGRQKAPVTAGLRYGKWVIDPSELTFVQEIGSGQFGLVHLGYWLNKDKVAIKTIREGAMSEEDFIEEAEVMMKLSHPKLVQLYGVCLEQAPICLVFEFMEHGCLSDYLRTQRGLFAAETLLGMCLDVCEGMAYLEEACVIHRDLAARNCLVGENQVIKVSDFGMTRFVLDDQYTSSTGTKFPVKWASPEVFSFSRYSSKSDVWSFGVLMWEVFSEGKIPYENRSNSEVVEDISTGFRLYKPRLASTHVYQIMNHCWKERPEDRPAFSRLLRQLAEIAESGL
Chain of CDK18 (Q07002 whole entry, the tested form may be a part): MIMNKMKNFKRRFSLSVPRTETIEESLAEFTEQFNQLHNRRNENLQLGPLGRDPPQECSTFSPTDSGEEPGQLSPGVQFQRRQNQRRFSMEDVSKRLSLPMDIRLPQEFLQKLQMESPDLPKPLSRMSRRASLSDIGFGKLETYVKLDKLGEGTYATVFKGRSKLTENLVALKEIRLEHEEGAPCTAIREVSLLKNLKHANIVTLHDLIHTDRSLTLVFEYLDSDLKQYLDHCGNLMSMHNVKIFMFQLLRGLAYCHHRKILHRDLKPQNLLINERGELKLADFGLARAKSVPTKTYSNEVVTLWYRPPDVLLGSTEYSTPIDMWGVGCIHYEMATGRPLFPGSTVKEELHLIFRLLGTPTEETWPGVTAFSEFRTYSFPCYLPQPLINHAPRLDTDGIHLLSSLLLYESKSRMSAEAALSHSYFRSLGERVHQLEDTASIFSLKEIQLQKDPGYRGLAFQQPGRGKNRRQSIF
Chain of SRMS (Q9H3Y6 whole entry): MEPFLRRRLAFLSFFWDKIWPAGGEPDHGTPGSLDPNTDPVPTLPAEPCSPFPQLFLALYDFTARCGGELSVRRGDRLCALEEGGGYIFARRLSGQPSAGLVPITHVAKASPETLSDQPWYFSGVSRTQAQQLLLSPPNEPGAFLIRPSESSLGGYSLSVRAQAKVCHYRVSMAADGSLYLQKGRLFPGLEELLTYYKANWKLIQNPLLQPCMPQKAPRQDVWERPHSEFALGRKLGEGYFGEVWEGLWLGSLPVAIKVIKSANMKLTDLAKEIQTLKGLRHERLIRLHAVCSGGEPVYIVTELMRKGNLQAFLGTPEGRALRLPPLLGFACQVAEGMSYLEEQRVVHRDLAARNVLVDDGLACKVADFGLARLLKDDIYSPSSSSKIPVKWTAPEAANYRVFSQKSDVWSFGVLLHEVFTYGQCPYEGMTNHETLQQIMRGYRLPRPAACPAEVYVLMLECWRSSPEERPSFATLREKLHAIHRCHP
Chain of SNRK (Q9NRH2 whole entry): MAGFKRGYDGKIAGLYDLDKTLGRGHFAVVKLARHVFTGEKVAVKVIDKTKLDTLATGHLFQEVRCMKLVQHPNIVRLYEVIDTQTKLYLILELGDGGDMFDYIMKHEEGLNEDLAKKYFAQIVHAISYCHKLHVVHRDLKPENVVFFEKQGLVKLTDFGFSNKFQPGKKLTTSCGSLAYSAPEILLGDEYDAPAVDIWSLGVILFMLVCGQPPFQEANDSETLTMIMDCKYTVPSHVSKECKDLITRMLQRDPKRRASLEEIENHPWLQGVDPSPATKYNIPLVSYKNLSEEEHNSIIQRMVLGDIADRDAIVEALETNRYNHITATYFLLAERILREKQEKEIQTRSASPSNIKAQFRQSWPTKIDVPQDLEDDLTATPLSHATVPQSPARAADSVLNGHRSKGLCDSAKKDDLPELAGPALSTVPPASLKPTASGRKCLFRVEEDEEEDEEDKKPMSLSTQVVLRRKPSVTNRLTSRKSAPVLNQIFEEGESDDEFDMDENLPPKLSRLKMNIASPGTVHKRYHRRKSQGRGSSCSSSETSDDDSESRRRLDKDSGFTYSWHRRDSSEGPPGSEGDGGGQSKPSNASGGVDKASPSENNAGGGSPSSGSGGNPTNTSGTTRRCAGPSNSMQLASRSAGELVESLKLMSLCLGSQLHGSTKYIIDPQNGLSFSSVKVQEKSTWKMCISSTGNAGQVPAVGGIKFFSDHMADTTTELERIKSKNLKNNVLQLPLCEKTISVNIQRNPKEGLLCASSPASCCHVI
Chain of MYLK4 (Q86YV6 whole entry): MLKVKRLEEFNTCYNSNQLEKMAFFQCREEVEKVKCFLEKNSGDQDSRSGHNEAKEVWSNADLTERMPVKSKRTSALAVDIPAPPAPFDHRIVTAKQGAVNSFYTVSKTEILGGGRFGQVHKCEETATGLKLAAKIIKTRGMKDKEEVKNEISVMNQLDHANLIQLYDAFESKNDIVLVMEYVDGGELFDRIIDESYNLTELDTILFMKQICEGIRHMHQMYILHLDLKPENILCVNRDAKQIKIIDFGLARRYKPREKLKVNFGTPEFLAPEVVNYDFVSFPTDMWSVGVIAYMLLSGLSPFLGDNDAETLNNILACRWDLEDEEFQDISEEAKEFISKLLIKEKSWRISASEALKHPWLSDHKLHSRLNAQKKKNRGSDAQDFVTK
Chain of STK38L (Q9Y2H1 whole entry): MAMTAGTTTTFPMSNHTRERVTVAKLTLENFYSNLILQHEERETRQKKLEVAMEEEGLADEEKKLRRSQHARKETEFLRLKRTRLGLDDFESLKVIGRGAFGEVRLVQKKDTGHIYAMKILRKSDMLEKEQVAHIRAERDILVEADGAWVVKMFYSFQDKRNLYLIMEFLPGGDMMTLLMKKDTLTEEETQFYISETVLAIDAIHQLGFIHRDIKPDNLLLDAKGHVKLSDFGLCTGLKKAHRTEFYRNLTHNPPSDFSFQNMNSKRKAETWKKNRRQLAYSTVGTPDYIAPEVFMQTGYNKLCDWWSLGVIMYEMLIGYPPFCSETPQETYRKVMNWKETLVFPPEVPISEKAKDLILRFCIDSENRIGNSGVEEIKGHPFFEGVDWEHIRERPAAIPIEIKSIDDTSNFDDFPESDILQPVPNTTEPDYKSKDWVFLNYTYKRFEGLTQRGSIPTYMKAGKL
Chain of NEK9 (Q8TD19 whole entry): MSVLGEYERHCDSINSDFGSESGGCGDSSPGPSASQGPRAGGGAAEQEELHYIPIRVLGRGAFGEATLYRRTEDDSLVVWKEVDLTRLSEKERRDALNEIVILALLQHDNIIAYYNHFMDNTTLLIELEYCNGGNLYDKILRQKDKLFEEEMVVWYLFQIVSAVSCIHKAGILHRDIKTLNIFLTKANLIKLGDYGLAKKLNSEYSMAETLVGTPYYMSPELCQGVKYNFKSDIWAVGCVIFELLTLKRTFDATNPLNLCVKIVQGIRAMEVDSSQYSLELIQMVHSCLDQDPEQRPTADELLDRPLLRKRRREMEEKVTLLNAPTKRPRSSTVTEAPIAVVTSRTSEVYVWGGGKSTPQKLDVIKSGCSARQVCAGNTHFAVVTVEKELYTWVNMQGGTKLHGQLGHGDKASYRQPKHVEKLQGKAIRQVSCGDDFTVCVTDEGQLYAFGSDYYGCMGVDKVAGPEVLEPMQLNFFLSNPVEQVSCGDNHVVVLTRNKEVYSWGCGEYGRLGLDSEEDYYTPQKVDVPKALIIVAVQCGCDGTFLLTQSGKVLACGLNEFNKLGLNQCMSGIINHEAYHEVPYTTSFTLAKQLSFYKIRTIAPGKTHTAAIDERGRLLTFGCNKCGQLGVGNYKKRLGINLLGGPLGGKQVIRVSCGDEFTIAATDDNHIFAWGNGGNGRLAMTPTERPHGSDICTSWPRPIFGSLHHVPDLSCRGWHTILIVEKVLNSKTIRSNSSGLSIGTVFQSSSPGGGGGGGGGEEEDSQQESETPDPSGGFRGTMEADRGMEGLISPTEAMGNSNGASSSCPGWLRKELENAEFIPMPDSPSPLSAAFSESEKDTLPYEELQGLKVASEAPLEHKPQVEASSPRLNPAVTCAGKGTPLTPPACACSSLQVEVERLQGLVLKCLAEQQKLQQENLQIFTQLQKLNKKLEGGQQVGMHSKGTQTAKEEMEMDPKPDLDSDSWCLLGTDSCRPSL

## C[C@@H](Oc1cc(-c2cnn(C3CCNCC3)c2)cnc1N)c1c(Cl)ccc(F)c1Cl [crizotinib]
CDK18
  inhibition at 1 µM: 2%
CAMK2A
  inhibition at 1 µM: 3%
RIPK2
  inhibition at 1 µM: 43%
NEK9
  inhibition at 1 µM: 1%
ITK
  inhibition at 1 µM: -1%
MARK2
  inhibition at 1 µM: 4%
FGFR3
  inhibition at 1 µM: 14%
GAK
  inhibition at 1 µM: -14%
PRKAA1
  inhibition at 1 µM: -1%
WEE2
  inhibition at 1 µM: -4%
MYLK4
  inhibition at 1 µM: -8%
PRKAA2
  inhibition at 1 µM: -6%
CAMK2D
  inhibition at 1 µM: 3%
PRKCE
  inhibition at 1 µM: -6%
SRMS
  inhibition at 1 µM: 0%
AAK1
  inhibition at 1 µM: -14%
SNRK
  inhibition at 1 µM: -4%
STK38L
  inhibition at 1 µM: 5%
